According to ChEMBL document CHEMBL1146305, “Synthesis of pyochelin-norfloxacin conjugates” (Bioorg Med Chem Lett, 2007):
Calls of active or inactive are those of the source. The rule behind the calls is not given here.

Test system: Pseudomonas aeruginosa
Assay: Antibacterial activity against Pseudomonas aeruginosa PAO1
Format: functional, organism-based

Compound | Activity
CCn1cc(C(=O)O)c(=O)c2cc(F)c(N3CCN(C(=O)OCOC(=O)CCC(=O)NCCCc4ccc(O)c(C5=NC(C6SCC(C(=O)O)N6C)CS5)c4)CC3)cc21 (configuration not stated) | Active
CCn1cc(C(=O)O)c(=O)c2cc(F)c(N3CCN(C(=O)OCOC(=O)CCC(=O)NCC#Cc4ccc(O)c(C5=NC(C6SCC(C(=O)O)N6C)CS5)c4)CC3)cc21 (configuration not stated) | Active
